Test results taken from patent US20100184680A1, “THERAPEUTIC USES OF B-TYPE NATRIURETIC PEPTIDE AND HUMAN GROWTH HORMONE 1-43” (priority 2007, published 2010).
Bridge positions count the residues as written; N and C are the ends. Ends that are not written are not given here.

How the values were obtained:
[1] = tested on: HIV-1IIIB; assay: HIV-1 antiviral assay in CEM-SS cells
[2] = tested on: isolated buffer-perfused and ventilated rabbit lung; assay: Isolated ventilated and buffer perfused lung model
Procedure: The isolated buffer-perfused and ventilated rabbit lung model is established for the investigation of the lung circulation, parenchyma, bronchial system and metabolic processes. Lungs are prepared from intact animals; the lungs are artificially ventilated and blood-free perfused. This model allows the study of pathophysiologic aspects under different conditions. Isolation of the intact lung enables observation of vasoreactivity, ventilation pressures and gas exchange avoiding humoral, central or metabolic influence. Lungs were perfused with test peptide BNP using a pulsatile flow roller pump in a closed system with recirculating buffer fluid. A rabbit ventilator enables the artificial ventilation with room air/carbon dioxide-mixture (CO2). Parameters continuosly measured include lung artery and left atrial pressure and ventilation pressure. Registration of lung weight gain serves as a parameter for development of lung edema. Samples of buffer fluid can be taken through the catheters.
Rabbits (New Zealand white bastards) of either sex, weighing 2.2-2.5 kg were anesthetized, using ketamine (Ketamin Inresa®, Inresa, Freiburg, Germany) and xylazine (Rompun®, Bayer, Leverkusen, Germany). Animals were anticoagulated with heparin (1000 U/kg body weight). After tracheotomy artificial ventilation was started with room air using a Havard respirator (tidal volume 8-12 ml/kg, frequency 30 breaths/min). Midsternal thoracotomy followed in a deep analgosedation and catheters were placed into the pulmonary artery and the left atrium. Lungs were perfused with sterile Krebs-Henseleit hydroxyethylamylopectine buffer (120 mM NaCl, 4.3 mM KCl, 1.1 mM KH2PO4, 25 mM NaHCO3, 2.4 mM CaCl2, 1.3 mM […], 2.4 g/L glucose) and 2.5% hydroxyethylamylopectine (mol weight 200,000) as an oncotic agent (Serag Wiesner, Naila, Germany). All concentrations are given as the final concentration in the buffer fluid.
The isolated lungs were freely suspended from an electronic force transducer (Transducer U1, Hottinger Baldwin Messtechnik, Darmstadt, Germany) in a humidified and tempered glas thorax. Perfusion was performed at a constant rate of 120 mL/min in a recirculating manner (total perfusate volume 300 mL), and the whole system was heated to 38° C. Room air, supplemented with ˜4% carbon dioxide was used for artificial ventilation to reach a pH of 7.34 to 7.38 and a positive end exspiratory pressure (PEEP) was set at 1-1.3 mmHg. Pressure in left atrium was set at 1.2 mmHg (reference point hilum). Pulmonary artery and ventilation pressures were continuously measured and are shown as mean values.
Independent variables in all experiments were: constant perfusion flow rate of 120 ml/min and a ventilator setting (tidal volume 8-12 ml/kg; frequency 30 breaths/min). The main dependent variables included: pressures in trachea and artery which were continuously measured. Lung weight gain as a parameter of lung edema formation was also continuously registered. Under constant flow condition, elevation of the artery pressure directly reflected an increase in vascular resistance.
Thromboxan A2 mimetic U46619 induces vasoconstriction: Lung artery pressure under resting conditions is about 8 mmHg. Slow titration, followed by continuous infusion of the thromboxan A2 mimetic U46619 causes precapillary vasoconstriction of about 25 mmHg. An observation period of up to 3 hours is accessible for further intervention.
Endothelin 1 (ET1) vasoconstricts the lung vasculature and leads to increased pressure in the isolated rabbit lung in a biphasic matter that is dose dependent. Infusion or inhalation of the test peptide of the invention is tested for therapeutic effect of lowering the vasoconstriction.
All data are shown as mean and standard error of mean (SEM). For primary data analysis, comparison was performed between the U46619 group and intravascular administered peptide. […]

[3] = tested on: HCMV strain AD169; assay: HCMV plaque formation assay in MRC-5 cells; type: cell-based
[4] = tested on: Human A549 cells; assay: Apoptosis prevention assay (C2 ceramide, Annexin-5); type: cell-based; conditions: 10 micrograms per ml, 30 min pretreatment
Procedure: Human A549 cells (carcinomic human alveolar basal epithelial cells) were utilized in the experiments employing the Annexin-5 apoptosis assay. […] A549 cells were pretreated for 30 min with test peptides—10 micrograms per ml—followed by the exposure to C2 ceramide.

[5] = tested on: Tumor Necrosis Factor-α (TNF-α); assay: Th1/Th2 cytokine profiling assay: TNF-α; type: cell-based, Balb/c mice; conditions: 10 micrograms per ml; Ovalbumin restimulation; 72 hours
Description: (§1) The Balb/c mice (originated in 1923, it is a popular strain and is used in many different research disciplines. Also classified as an inbred from the production of 20 or more successive brother-sister matings, the Balb/c mouse is albino and small in size) were immunized on Days 1, 15, and 29 with Ovalbumin (Ovalbumin is the main protein found in egg white, commonly used to stimulate an immunological reaction in test animals) in PBS (5 micrograms/injection). On day 50, spleens of the mice were harvested (3 weeks after last boost with Ovalbumin). Cells were cultured (2×10^5/well in triplicate) and incubated with culture medium or test peptides—10 micrograms per ml—for 30 min. Thereafter, additional Ovalbumin was added to the cells at 10 micrograms/ml for in vitro restimulation of the cells. 72 hours later, cell supernatants were harvested and assayed using the Becton Dickinson Mouse Th1/Th2 Cytokine CBA Kit. This kit can be used to measure Interleukin-2 (IL-2), Interleukin-4 (IL-4), Interleukin-5 (IL-5), Interferon-γ (IFN-γ), and Tumor Necrosis Factor-α (TNF-α) protein levels in a single sample. The kit performance has been optimized for analysis of physiologically relevant concentrations (pg/ml levels) of specific cytokine proteins in tissue culture supernatants and serum samples.

[6] = tested on: Interleukin-4 (IL-4); assay: Th1/Th2 cytokine profiling assay: IL-4; type: cell-based, Balb/c mice; conditions: 10 micrograms per ml; Ovalbumin restimulation; 72 hours
Description: (§2) The Balb/c mice (originated in 1923, it is a popular strain and is used in many different research disciplines. Also classified as an inbred from the production of 20 or more successive brother-sister matings, the Balb/c mouse is albino and small in size) were immunized on Days 1, 15, and 29 with Ovalbumin (Ovalbumin is the main protein found in egg white, commonly used to stimulate an immunological reaction in test animals) in PBS (5 micrograms/injection). On day 50, spleens of the mice were harvested (3 weeks after last boost with Ovalbumin). Cells were cultured (2×10^5/well in triplicate) and incubated with culture medium or test peptides—10 micrograms per ml—for 30 min. Thereafter, additional Ovalbumin was added to the cells at 10 micrograms/ml for in vitro restimulation of the cells. 72 hours later, cell supernatants were harvested and assayed using the Becton Dickinson Mouse Th1/Th2 Cytokine CBA Kit.

[7] = tested on: Interferon-γ (IFN-γ); assay: Th1/Th2 cytokine profiling assay: IFN-γ; type: cell-based, Balb/c mice; conditions: 10 micrograms per ml; Ovalbumin restimulation; 72 hours
Description: as §1

[8] = tested on: Interleukin-5 (IL-5); assay: Th1/Th2 cytokine profiling assay: IL-5; type: cell-based, Balb/c mice; conditions: 10 micrograms per ml; Ovalbumin restimulation; 72 hours
Description: as §2

[9] = tested on: Interleukin-2 (IL-2); assay: Th1/Th2 cytokine profiling assay: IL-2; type: cell-based, Balb/c mice; conditions: 10 micrograms per ml; Ovalbumin restimulation; 72 hours
Description: as §1

[10] = tested on: Primary Human endothelial cells (HUVEC); assay: Endothelial cell migration assay; type: cell-based; conditions: 10 micrograms per ml, 22 hours
[11] = tested on: HUVEC; assay: Endothelial tube formation assay; type: cell-based, human; conditions: 10 micrograms per ml, 20 hours
Description: Positive control was vehicle only.

[12] = tested on: cGMP; assay: Cyclic GMP measurement in the rabbit lung model; conditions: buffer samples from left atrial catheter; RIA; administration dependent
Procedure: Buffer samples were drawn from the left atrial catheter in the isolated buffer-perfused and ventilated rabbit lung model at predefined time points, every 30 minutes in the control group and every 15 minutes in the intervention groups. Samples were immediately frozen and stored at −80° Celsius. Analysis of cGMP was performed using a commercially available radio immuno (RIA) assay kit.

[13] = increasing doses of 5, 10 and 100 nM, isolated rabbit lung

CC(C)(C)NC(=O)[C@@H]1CN(Cc2cccnc2)CCN1C[C@@H](O)C[C@@H](Cc1ccccc1)C(=O)N[C@H]1c2ccccc2C[C@H]1O [indinavir]
antiviral activity of positive control compounds (HIV-1) [1]: expected levels of antiviral activity

Endothelin 1 (CSCSSLMDKECVYFCHLDIIW; disulfide 1-15, 3-11; ends not checked; UniProt P05305 53-73, looked up) [ET1, Endothelin 1 (ET1) vasoconstricts the lung vasculature, reference compound]
vasoconstriction (lung artery pressure), stable plateau phase ([2]; administration into the buffer fluid, rise over 60 minutes): 27±2.16 mmHg

CCCCC[C@H](O)/C=C/[C@@H]1[C@@H](C/C=C\CCCC(=O)O)[C@H]2CO[C@@H]1C2 [U46619, reference compound]
vasoconstriction (lung artery pressure), plateau at the end of the experiment ([2]; continuous infusion, after another 135 minutes): 25.53±0.9 mmHg
vasoconstriction (lung artery pressure) provoked by continuous infusion ([2]; within 15 minutes, isolated rabbit lung): 25.5±0.26 mmHg

Nc1nc(O)c2ncn(COC(CO)CO)c2n1 [Ganciclovir]
antiviral activity of positive control compound (HCMV) [3]: expected levels of antiviral activity

Cc1cn([C@H]2C[C@H](N=[N+]=[N-])[C@@H](CO)O2)c(=O)[nH]c1=O [AZT]
antiviral activity of positive control compounds (HIV-1) [1]: expected levels of antiviral activity

Ser-Pro-Lys-Met-Val-Gln-Gly-Ser-Gly-Cys-Phe-Gly-Arg-Lys-Met-Asp-Arg-Ile-Ser-Ser-Ser-Ser-Gly-Leu-Gly-Cys-Lys-Val-Leu-Arg-Arg-His [Peptide 1]
prevented (reduced) ceramide-induced apoptosis on human lung cells [4]: 14.4%
TNF-a spleen cells; TH1 response (% of control) [5]: 93.1 % of control
IL-4 spleen cells; TH2 response (% of control) [6]: 0.0 % of control
IFNγ spleen cells; TH1 response (% of control) [7]: 66.1 % of control
IL-5 spleen cells; TH2 response (% of control) [8]: 92.7 % of control
IL-2 spleen cells (% of control) [9]: 0.0 % of control
inhibited the migration of human endothelial cells [10]: 21%
arterial pressure under stable high vasoconstriction [2, 13]: rapid and dose dependent decline
lung weight [2, 13]: without affecting
ventilation pressure [2, 13]: without affecting
inhibited the tube formation of endothelial cells [11]: 3%
cGMP levels [12]: significantly increased

Phe-Pro-Thr-Ile-Pro-Leu-Ser-Arg-Leu-Phe-Asp-Asn-Ala-Met-Leu-Arg-Ala-His-Arg-Leu-His-Gln-Leu-Ala-Phe-Asp-Thr-Tyr-Gln-Glu-Phe-Glu-Glu-Ala-Tyr-Ile-Pro-Lys-Glu-Gln-Lys-Tyr-Ser-OH (FPTIPLSRLFDNAMLRAHRLHQLAFDTYQEFEEAYIPKEQKYS-OH) [Peptide 2, Human growth Hormone (1-43); HGH]
prevented (reduced) ceramide-induced apoptosis on human lung cells [4]: 18.4%
TNF-a spleen cells; TH1 response (% of control) [5]: 94.0 % of control
IL-4 spleen cells; TH2 response (% of control) [6]: 184.6 % of control
IFNγ spleen cells; TH1 response (% of control) [7]: 60.3 % of control
IL-5 spleen cells; TH2 response (% of control) [8]: 78.2 % of control
IL-2 spleen cells (% of control) [9]: 132.2 % of control
induced the migration of human endothelial cells [10]: 14%
inhibited the tube formation of endothelial cells [11]: 19%
